Patent US9271991B2, “Trimegestone (TMG) for treatment of preterm birth” (Dignity Health, priority 2010, dated 2016)
Where “and” joins values, the source holds several entries; their conditions need not be identical. Equal values may be shown once.

Legend:
[1] = tested on: pregnant rats (term delivery); assay: Delay of term delivery in pregnant rats; assay type: in vivo, Sprague-Dawley rats; settings: pregnant rats
Description: Timed-pregnant Sprague-Dawley rats (200-250 g) from Charles-River Laboratories (Wilmington, Mass., USA) were delivered to our animal care facilities on day 15 of gestation (day 1 being the day when a sperm plug was observed). The animals were housed separately, with free access to food and water and maintained on a constant 12-hour light-dark cycle. Control pregnant rats were spontaneously delivering on day 22 of gestation. The animals were randomly allocated into groups and sacrificed by carbon dioxide inhalation on day 5 postpartum or on day 25 of gestation in the groups with delayed delivery.
Pregnant rats (N=6 per group) were treated, when not otherwise mentioned, from day 20 of gestation until delivery. Single daily treatments were performed at 8 am and twice a day treatments at 8 am and 8 pm. Treatment began daily on day 20 of gestation with vehicles or: a) Topical P4 at various doses (4-30 mg/day, vehicle (v)=fish oil) or topical TMG ([…], v=fish oil; b) Subcutaneous (s.c.) P4 (0.5-4 mg/day, v=sesame oil) or s.c. TMG (0.5-2 mg/day, v=benzyl benzoate (BB) and castor oil (CO), 1:4). Delivery times were observed.
Subcutaneous treatments. All daily injections were by the subcutaneous route (s.c) in […] for the P4 treatments and benzyl benzoate (BB, 1 part): castor oil (CO, 4 parts) for the TMG group. P4 and TMG had dose ranges of 0.5 mg-4 mg per day and 0.5 mg-2 mg per day, respectively. Vehicles only are used in the control groups.
Topical treatments. Topical P4 and TMG (in fish oil and benzyl benzoate:castor oil (1:4), respectively) treatments were applied to the shaved back of the rat twice a day For topical treatments of P4 and TMG, dose range from 2 mg-30 mg per day and 0.005 to 0.5 mg per day, respectively.
Times of delivery of controls and treatment groups were determined as hours after 8 a.m. on day 22 of gestation. […] Delays in delivery less than 80 hours were calculated as less than 100% inhibition. The expulsion of a single pup was noted as delivery. Control groups spontaneously delivered on day 22 of gestation.
The Student's t test was used to compare the treatment groups with its specific control groups to determine the differences in delivery times. A 2-tailed probability value of P<0.05 was considered statistically significant.

[2] = tested on: pregnant guinea pigs (preterm delivery); assay: PGE2-induced preterm delivery in pregnant guinea pigs; assay type: in vivo, Hartley guinea pigs; settings: TMG 4 mg/day s.c. days 44-47; PGE2 3 mg/day days 46, 47; sacrifice day 48
Description: Pregnant guinea pigs, another model of pregnancy are also utilized as they more closely resemble the endocrine control of human pregnancy with progesterone levels in pregnancy maintained by the placenta as opposed to the ovaries, which is observed in pregnant rats.
Pregnant Hartley guinea pigs arrived at our facilities at 31-35 days gestation and housed in pairs, with free access to food and water and also maintained on a constant 12-hour light-dark cycle. The animals were euthanized with a combination of xylazine (Gemini; Burns Veterinary Supply Inc, Rockville Center, N.Y.) and ketamine HCL (Ketaset; Fort Dodge Laboratories Inc, Fort Dodge, Iowa). All procedures were approved by the Animal Care and Use Committee of the St. Joseph's Hospital and Medical Center in Phoenix, Ariz.
Pregnant guinea pigs (N=4-6 per group) were allocated into 4 groups (Vehicle (v) only, TMG only, PGE2 only, PGE2+TMG). PGE2 administration (3 mg/day s.c, v=saline) began daily on day 46 to day 47 of gestation. TMG administration (4 mg/day s.c v=BB:CO) began daily on day 44 until day 47 of gestation. All guinea pigs were sacrificed on day 48.

[3] = s.c. single daily treatment from day 20 of gestation
[4] = topical twice a day from day 20 of gestation

CC(=O)[C@H]1CC[C@H]2[C@@H]3CCC4=CC(=O)CC[C@]4(C)[C@H]3CC[C@]12C [P4, progesterone]
dose for complete block of delivery (80 hour delay, 100 percent inhibition), subcutaneous [1, 3]: 2 mg | dose for complete block of delivery, subcutaneous [1, 3]: 2 mg/day | dose for complete block of delivery (80 hour delay, 100 percent inhibition), topical [1, 4]: 15 mg | dose for complete block of delivery, topical [1, 4]: 15 mg/day

CCCCC[C@H](O)/C=C/[C@H]1[C@H](O)CC(=O)[C@@H]1C/C=C\CCCC(=O)O [PGE2, prostaglandin E2]
guinea pigs delivered (preterm) / treated, substance alone [2]: 2/3 and 4/6
